# Reference: patent US20230091671A1 (priority 2020, published 2023)
# Structures can show the parent of a compound that is named as a salt.
# Key:
# [1] = cited from earlier work
# [2] = cited from earlier work; remark: listed apart in the source
# [3] = test system: VC and laryngeal muscles/laryngospasm; conditions: rat model; cited from earlier work
# [4] = biological target: T1, 1A subtype (α-1 adrenergic receptor) (Homo sapiens, UniProt P35348); conditions: cited from earlier work
# T1 sequence (P35348 1-466): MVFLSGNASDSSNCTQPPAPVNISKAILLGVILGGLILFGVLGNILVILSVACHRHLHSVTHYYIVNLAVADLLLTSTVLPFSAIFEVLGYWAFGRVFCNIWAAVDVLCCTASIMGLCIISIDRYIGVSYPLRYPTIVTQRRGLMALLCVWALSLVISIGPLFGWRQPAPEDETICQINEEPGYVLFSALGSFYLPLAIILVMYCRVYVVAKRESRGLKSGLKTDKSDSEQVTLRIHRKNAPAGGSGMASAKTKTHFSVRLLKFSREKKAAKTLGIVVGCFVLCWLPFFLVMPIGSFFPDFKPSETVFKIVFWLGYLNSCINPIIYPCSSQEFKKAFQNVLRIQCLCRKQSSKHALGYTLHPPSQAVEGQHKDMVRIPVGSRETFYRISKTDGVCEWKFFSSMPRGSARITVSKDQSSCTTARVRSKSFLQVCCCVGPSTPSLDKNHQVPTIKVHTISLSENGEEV
# [5] = in vivo; cited from earlier work
# α1-AR 1D = biological target: T2, α1-AR 1D (Homo sapiens, UniProt P25100); type: binding
# T2 construct: expressed in transfected cells; host or cells: HEK-293
# T2 sequence (P25100 1-572): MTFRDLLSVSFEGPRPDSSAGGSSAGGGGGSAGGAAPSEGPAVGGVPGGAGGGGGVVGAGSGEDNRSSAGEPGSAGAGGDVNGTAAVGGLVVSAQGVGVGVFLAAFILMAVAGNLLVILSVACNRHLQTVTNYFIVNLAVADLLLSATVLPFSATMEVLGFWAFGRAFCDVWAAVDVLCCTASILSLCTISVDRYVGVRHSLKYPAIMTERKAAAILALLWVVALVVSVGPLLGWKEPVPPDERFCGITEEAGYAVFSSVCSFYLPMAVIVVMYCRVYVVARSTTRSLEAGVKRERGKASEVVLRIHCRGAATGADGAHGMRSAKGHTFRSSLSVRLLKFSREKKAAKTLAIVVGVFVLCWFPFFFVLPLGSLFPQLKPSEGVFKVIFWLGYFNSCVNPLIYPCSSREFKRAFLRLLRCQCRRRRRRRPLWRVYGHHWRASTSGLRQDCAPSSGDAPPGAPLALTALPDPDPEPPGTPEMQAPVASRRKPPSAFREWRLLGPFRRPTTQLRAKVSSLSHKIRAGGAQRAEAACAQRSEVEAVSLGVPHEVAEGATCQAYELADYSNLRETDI
# [6] = recommended single intravenous injection
# [7] = single intramuscular and intravenous doses
# [8] = subcutaneous injection of 10 mg
structure (smiles),measurement,setting,value
"COc1cc2nc(N(C)CCCNC(=O)C3CCCO3)nc(N)c2cc1OC.Cl (racemic) [ALFUZOSIN, (R,S)-N-[3-[(4-amino-6,7-dimethoxy-2-quinazolinyl)methylamino]propyl]tetrahydro-2-furancarboxamide hydrochloride]",dizziness,[1]; clinical test subjects,6%
same,hypotension,[1]; clinical test subjects,0.4%
same,syncope,[1]; clinical test subjects,0.2%
"CCN1CC(CCN2CCOCC2)C(c2ccccc2)(c2ccccc2)C1=O (stereo not drawn) [Doxapram hydrochloride, 1-ethyl-4-[2-(4-morpholinyl)ethyl]-3,3-diphenyl-2-pyrrolidinone monohydrochloride, monohydrate]",duration of effect,[2]; [6],5 to 12 min
same,onset of respiratory stimulation,[2]; [6],20 to 40 s
same,time of peak effect,[2]; [6],1 to 2 min
"C=CCN1CC[C@]23c4c5ccc(O)c4O[C@H]2C(=O)CC[C@@]3(O)[C@H]1C5.Cl [naloxone, 17-Allyl-4,5α-epoxy-3,14-dihydroxymorphinan-6-one hydrochloride]",dose at which naloxone has an effect,[3],> 0.8 mg/kg
"C[C@H](Cc1cc2c(c(C(N)=O)c1)N(CCCO)CC2)NCCOc1ccccc1OCC(F)(F)F [SILODOSIN, (3-Hydroxypropyl)-5-[(2R)-2-({2-[2-(2,2,2trifluoroethoxy)phenoxy]ethyl}amino)propyl]-2,3-dihydro-1H-indole-7-carboxamide]",Dizziness and orthostatic hypotension,"[1]; Study of 897 subjects, 8 mg QD",3%
same,subjects with syncope / subjects in study,"[1]; Study of 897 subjects, 8 mg QD",1/897
"COc1cc2nc(N3CCN(C(=O)c4ccco4)CC3)nc(N)c2cc1OC.Cl [PRAZOSIN, 1-(4-amino-6,7-dimethoxy-2-quinazolinyl)-4-(2-furoyl) piperazine]","Syncope and symptoms of hypotension, share of subjects receiving",[1]; 1 mg BID/TID titrated up to 20 mg total QD,6-12%
"CCOc1ccccc1OCCN[C@H](C)Cc1ccc(OC)c(S(N)(=O)=O)c1 [TAMSULOSIN, (-)-(R)-5-[2-[[2-(o-Ethoxyphenoxy)ethyl]amino]propyl]-2-methoxybenzenesulfon-amide, monohydrochloride]",greater binding affinity at the 1A subtype over other α-1 antagonists,[4],12-30 times
same,"incidence of hypotension, syncope, vertigo",[1]; Dose (0.4-0.8 mg QD),0.2%-0.6%
CCC(=O)C(CC(C)N(C)C)(c1ccccc1)c1ccccc1 (stereo not drawn) [Methadone],metabolism (enzymes / pathway),[5],"CYP3A4, CYP2B6 and CYP2D6"
"COc1cc2nc(N3CCN(C(=O)C4CCCO4)CC3)nc(N)c2cc1OC.Cl (racemic) [TERAZOSIN, (RS)-Piperazine,1-(4-amino-6,7-dimethoxy-2-quinazolinyl)-4-[(tetra-hydro-2-furanyl)carbonyl]-, monohydrochloride, dihydrate]",syncope,[1]; clinical test subjects,0.6%
same,postural hypotension,[1]; trial of 600 subjects,4%
NC[C@H](O)c1ccc(O)c(O)c1 [NE],affinity and potency at α1-AR 1D compared with other subtypes,α1-AR 1D,highest affinity and potency
"O=C(CCCN1CC=C(n2c(=O)[nH]c3ccccc32)CC1)c1ccc(F)cc1 [Droperidol, 1-[1-[3-(p-Fluorobenzoyl)propyl]-1,2,3,6-tetrahydro-4-pyridyl]-2-benzimidazolinone]",duration of the tranquilizing and sedative effects,"[2]; human, in vivo",two to four hours
same,persistence of alteration of alertness,"[2]; human, in vivo",as long as twelve hours
same,onset of action,[2]; [7],three to ten minutes
same,time until peak effect apparent,[2]; [7],up to thirty minutes
CN1CCC[C@H]1c1cccnc1 [Nicotine],crossing of the blood brain barrier,[5],crosses the blood-brain barrier
same,elimination half-life in the body,[5],around two hours
same,half-life,[5],1 to 2 h
same,route of excretion,[5],primarily excreted in urine
same,time to reach the brain after inhalation,[5],10 to 20 s
CC[C@@H]1C(=O)OC[C@@H]1Cc1cncn1C [pilocarpine HCl],salivation,[2]; [8],1 L
same,sweating,[2]; [8],0.5 to 1.0 L
